Consider 3 compounds from patent US9233184B2, “Adhesive preparation” (HISAMITSU PHARMACEUTICAL CO., INC., priority 2006, dated 2016).

Like-named read-outs stand apart in the source and are kept apart here.

For data set [1] the following is noted: human, in vivo. As to the method: (§1) Blood was collected over time. […] Methyl salicylate and 1-menthol are contained in large amounts in daily necessities. Therefore, the use of such daily necessities was avoided before and during the application.
(§2) The plasma concentrations of the methyl salicylate, its metabolite salicylic acid, and the 1-menthol were separately measured. The measurement was performed by liquid chromatography-mass spectrometry for the salicylic acid and by gas chromatography-mass spectrometry for the methyl salicylate and the 1-menthol. Each of the measurement methods was validated beforehand to confirm measurement reliability. Values obtained by subtracting an endogenous concentration (measurement value on 0 hour) before the application from an actual measurement value were used as plasma concentrations during the application. The Cmax and AUC0-24 were calculated according to the standard methods.
A mean was an average value from the seven individuals to be tested. This measurement of the plasma concentrations was performed according to the guideline of FDA (U.S. Food and Drug Administration) (Guidance for Industry=Bioanalytical Method Validation).

Data set [2] is described as follows: clinical. Conditions: human, in vivo; for Cmax: plasma Cmax. As to the method: as §1, §2
This measurement of the plasma concentrations was performed according to the guideline of FDA (U.S. Food and Drug Administration) (Guidance for Industry=Bioanalytical Method Validation).

For data set [3] the following is noted: cited from earlier work.

In the case of `CC1CCC(C(C)C)C(O)C1` (stereo not drawn) [Example 1-menthol, 1-menthol], the “time within which maximum plasma concentration (Cmax) is achieved” value in data set [1] is at most 8 h. In data set [2] (plasma AUC0-24, Mean ± S.D.), this compound returned an AUC(0-t) of 80.6 ng·h/mL.

With `COC(=O)c1ccccc1O` [Methyl salicylate], the “time within which maximum plasma concentration (Cmax) is achieved” value in data set [1] was at most 6 h. Besides, the AUC(0-t) in data set [2] (plasma AUC0-24, Maximum value) was determined as 139 ng·h/mL; in data set [2] (plasma AUC0-24, Mean ± S.D.), 30.1 ng·h/mL; in data set [2] (plasma AUC0-24, Minimum value) it was 3.7 ng·h/mL. For the same compound, the Cmax in data set [2] (Maximum value) amounted to 109 ng/mL; in data set [2] (Mean ± S.D.) it was 21.1 ng/mL; in data set [2] (Minimum value), 2.5 ng/mL. The “plasma concentration of methyl salicylate” value was “approximately 30 ng/mL” in data set [3] (eight pieces of adhesive preparation with 74.88 mg/piece of methyl salicylate applied to a human) and “hardly rose” in data set [3] (two pieces of adhesive preparation with 74.88 mg/piece of methyl salicylate applied to a human).

For the compound `O=C(O)c1ccccc1O` [Salicylic acid], the “time within which maximum plasma concentration (Cmax) is achieved” value in data set [1] is at most 12 h. Further, the exposure AUC(0-t) in data set [2] (plasma AUC0-24, Maximum value) was determined as 24700 ng·h/mL; in data set [2] (plasma AUC0-24, Mean ± S.D.), 8850 ng·h/mL; in data set [2] (plasma AUC0-24, Minimum value), 3460 ng·h/mL. Further, the figures for the Cmax in data set [2] (Maximum value), in data set [2] (Mean ± S.D.) and in data set [2] (Minimum value) were 4100 ng/mL, 1290 ng/mL and 531 ng/mL, respectively.
